Reference: patent US8692001B2, “Sulfonamides for the modulation of PKM2” (Dynamix Pharmaceuticals Ltd., priority 2010, dated 2014)
Blank lines part the entries; values can stand above or below the compound they belong to.

How the values were obtained:
PKM2, human recombinant = molecular target: T1, PKM2, human recombinant (Homo sapiens, UniProt P14618); assay: PKM2 enzymatic activity assay (Kinase-Glo Plus luminescence); type: biochemical; conditions: PKM2 activation; 0.1 nM PKM2, 0.1 mM ADP, 0.5 mM PEP, room temperature, 1 hour
T1 construct: purchased BPS 50295
T1 sequence (P14618 whole entry): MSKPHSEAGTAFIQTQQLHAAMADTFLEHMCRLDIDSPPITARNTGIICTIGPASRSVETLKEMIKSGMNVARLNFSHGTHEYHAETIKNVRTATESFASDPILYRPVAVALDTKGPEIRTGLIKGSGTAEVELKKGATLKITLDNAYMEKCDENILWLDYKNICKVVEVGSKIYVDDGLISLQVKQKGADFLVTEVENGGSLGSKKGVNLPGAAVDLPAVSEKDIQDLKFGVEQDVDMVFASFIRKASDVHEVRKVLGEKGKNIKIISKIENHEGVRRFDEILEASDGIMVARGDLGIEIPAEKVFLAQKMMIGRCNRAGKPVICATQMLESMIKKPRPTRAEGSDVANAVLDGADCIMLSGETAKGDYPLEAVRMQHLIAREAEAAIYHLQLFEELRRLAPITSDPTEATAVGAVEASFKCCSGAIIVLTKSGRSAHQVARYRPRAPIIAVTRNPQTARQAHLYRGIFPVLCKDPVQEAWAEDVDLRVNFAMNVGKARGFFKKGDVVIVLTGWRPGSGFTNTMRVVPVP
Method: PKM2 performs the following enzymatic reaction, where the PKM2 substrates, PEP (phosphoenolpyruvate) and ADP, are converted to pyruvate and ATP as follows: PEP+ADP→Pyruvate+ATP. All of the enzymatic reactions were conducted in duplicates at room temperature for 1 hour in a 50 μL mixture containing:
PKM2 assay buffer (50 mM Immidazole, pH 7.2; 7 mM MgCl2; 50 mM KCl; 0.01% Tween; and 0.05% BSA), 0.1 mM ADP, 0.5 mM PEP, 0.1 nM PKM2 enzyme (PKM2, human recombinant (BPS catalog number 50295)) and the indicated test compound.
Fructose 1,6 biphosphate, (FBP (Sigma)) was used as a positive control for activation at concentration of 0.5 mM. After enzymatic reactions, 50 μL of Kinase-Glo® Plus reagent (Promega kit) was added to each well and luminescence was measured using a BioTek Synergy™ 2 microplate reader.
PKM2 activity assays were performed in duplicates at each concentration. The luminescence data were analyzed using the computer software, GraphPad PRISM®. In the absence of the compound, the luminescence was defined as 0% activity. The percent activity in the presence of each compound was calculated according to the following equation: % Activity=[(L−Lb)/(Lt−Lb)−1]×100% where L=the luminescence in the presence of the test compound, Lb=the luminescence in the absence of PKM2, and Lt=the luminescence intensity in the absence of the test compound. The % activity values versus a series of compound concentrations were plotted using non-linear regression analysis of Sigmoidal dose-response curve generated with the equation Y=B+(T−B)/1+10^((LogEC50−X)×Hill Slope), where Y=percent activity, B=minimum percent activity, T=maximum percent activity, X=logarithm of compound and Hill Slope=slope factor or Hill coefficient. The EC50 value was determined for the indicated compounds as the concentration causing a half-maximal percent activity.

[1] = test system: H1299 (Non small cell lung carcinoma cell line); assay: In vitro cell proliferation, Assay Protocol II (cell proliferation index, fluorescent membrane marker, flow cytometry); type: cell-based; conditions: Homo sapiens, NCI-H1299, as measured by Assay Protocol II
Method: In a second assay to determine the inhibition of cell proliferation by a compound of the invention, cell proliferation of the cell line of interest was measured by a cell proliferation index assay using Fluofarma® based technology. This assay is based on the dilution rate of a fluorescent membrane marker, which is a direct function of the number of cell divisions. Briefly, the assay is performed by loading the cells with a non-toxic fluorescent phospholipid analog before the seeding. […] Flow cytometry analysis of the fluorescent probe is performed after the loading of the cells both prior to, as well as after treatment with various concentrations of the test compound. The dilution rate of the fluorescent probe at the single cell level is directly correlated to the number of cell divisions.

[2] = test system: 786-O (Renal cancer cell line); assay: In vitro cell proliferation, Assay Protocol I (CellTiterGlo); type: cell-based; conditions: Homo sapiens, 786-0
Method: (§1) Growth inhibitory activity against the human tumor cell lines of compounds of the invention was determined using Promega's CellTiterGlo® assay. The cell lines of interest were placed in a 96-well microculture plate (Costar® white, flat bottom #3917) in a total volume of 90 μL/well. After 24 hours of incubation in a humidified incubator at 37° C. with 5% CO2 and 95% air, 10 μL of serially diluted test compounds in growth medium were added to each well. After 96 total hours of culture in a CO2 incubator, the plated cells and CellTiter-Glo® (Promega # G7571) reagents were brought to room temperature to equilibrate for 30 minutes. 100 μL of CellTiter-Glo® reagent was added to each well. The plate was shaken for 2 minutes and then left to equilibrate for 10 minutes before reading luminescence on the Tecan GENios microplate reader.
(§2) Percent inhibition of cell growth was calculated relative to untreated control wells. All tests were performed in triplicate for each concentration level. The IC50 value for the test compounds was estimated using Prism 3.03 by curve-fitting the data.

[3] = test system: A549 (Non-small cell lung carcinoma cell line); assay: as above; type: cell-based; conditions: Homo sapiens
Method: as §1, §2

[4] = test system: Colo-205 (Colorectal cancer cell line); assay: as above; type: cell-based; conditions: Homo sapiens
Method: as §1, §2

[5] = test system: H1299 (Non small cell lung carcinoma cell line); assay: as above; type: cell-based; conditions: Homo sapiens, NCI-H1299, 96 total hours of culture
Method: as §1, §2

[6] = test system: HT-29 (Colorectal cancer cell line); assay: as above; type: cell-based; conditions: Homo sapiens
Method: as §1, §2

[7] = test system: HeLa (Cervical cancer cell line); assay: as above; type: cell-based; conditions: Homo sapiens
Method: as §1, §2

[8] = test system: HepG2 cancer cells (hepatocellular carcinoma cells); assay: Bioenergetic study, XF24 analyzer (OCR and ECAR); type: cell-based; conditions: HepG2 cells treated at 100 μM, recorded over an 8 hour period; FIG. 2
Method: Bioenergetic studies were performed using XF24 analyzer (Seahorse Bioscience). Oxygen Consumption Rate (OCR), a measure of mitochondrial oxydative phosphorylation, and Extra-Cellular Acidification Rate (ECAR), which represents glycolysis, were recorded over an 8 hour period for cells treated with various test compounds at 100 μM.

[9] = Cell proliferation and apoptosis over time (cell counts, caspase 3/7 assay), FIG. 3; type: cell-based
Method: Additionally, the effect of 5-((2,3-dihydrobenzo[b][1,4]dioxin-6-yl)sulfonyl)-2-methyl-1-(methylsulfonyl)indoline on cell proliferation and apoptosis was measured and the results are shown in FIG. 3.

Compound: CS(=O)(=O)N1Cc2ccc(S(=O)(=O)c3ccc4c(c3)OCCO4)cc2C1 [Compound 6A, 5-((2,3-dihydrobenzo[b][1,4]dioxin-6-yl)sulfonyl)-2-(methylsulfonyl)isoindoline]
IC50 [1]: < 20 µM

Compound: CC(C)N(c1ccc(S(=O)(=O)c2ccc3c(c2)OCCO3)cc1)S(C)(=O)=O [Compound 10A]
EC50 (PKM2, human recombinant): 1 to 10 µM

Compound: CCN(c1ccc(S(=O)(=O)c2ccc3c(c2)OCCO3)c(C)c1)S(C)(=O)=O [Compound 12A]
EC50 (PKM2, human recombinant): 1 to 10 µM

Compound: Cc1cn(S(C)(=O)=O)c2ccc(S(=O)(=O)c3ccc4c(c3)OCCO4)cc12 [Compound 21A]
EC50 (PKM2, human recombinant): 1 to 10 µM

Compound: CCN(c1ccc(S(=O)(=O)c2ccc3c(c2)OCCO3)cc1)S(C)(=O)=O [Compound 24A]
EC50 (PKM2, human recombinant): 10 to 100 µM

More lines, main results first:

EC50 (PKM2, human recombinant): 1 to 10 µM
IC50 [1]: < 40 µM
IC50 [2]: < 30 µM
IC50 [3]: < 50 µM
IC50 [4]: < 30 µM
IC50 [5]: < 10 µM
IC50 [6]: > 100 µM
IC50 [7]: < 60 µM
Compound: CC1Cc2cc(S(=O)(=O)c3ccc4c(c3)OCCO4)ccc2N1S(C)(=O)=O (stereo not drawn) [Compound 2A, 5-((2,3-dihydrobenzo[b][1,4]dioxin-6-yl)sulfonyl)-2-methyl-1-(methylsulfonyl)indoline]
Metabolic activity (OCR and ECAR) [8]: less metabolically active
Effect on cell proliferation (cell counts) ([9]; FIG. 3, as a function of time after treatment): induces a period of growth arrest
Cells that underwent apoptosis (caspase 3/7 assay) ([9]; by day 15, FIG. 3): up to 60%

EC50 (PKM2, human recombinant): 1 to 10 µM
Compound: CC(=O)N1c2ccc(S(=O)(=O)c3ccc4c(c3)OCCO4)cc2CC1C (stereo not drawn) [Compound 4A]

EC50 (PKM2, human recombinant): 1 to 10 µM
Compound: CS(=O)(=O)N1CCCc2cc(S(=O)(=O)c3ccc4c(c3)OCCO4)ccc21 [Compound 7A]

IC50 [5]: < 20 µM
Compound: CS(=O)(=O)N1CCc2cc(S(=O)(=O)c3ccc4c(c3)OCCO4)ccc21 [Compound 11A, 5-((2,3-dihydrobenzo[b][1,4]dioxin-6-yl)sulfonyl)-1-(methylsulfonyl)indoline]

EC50 (PKM2, human recombinant): 1 to 10 µM
Compound: C[C@H]1Cc2cc(S(=O)(=O)c3ccc4c(c3)OCCO4)ccc2N1S(=O)(=O)Cc1ccccc1 [Compound 13A]

EC50 (PKM2, human recombinant): 10 to 100 µM
Compound: CC1Cc2cc(S(=O)(=O)Nc3ccc4c(c3)OCCO4)ccc2N1S(C)(=O)=O (stereo not drawn) [Compound 23A]
